{"source": "patent US10987377B2", "about": "“Use of inhaled gaseous nitric oxide as a mucolytic agent or expectorant” (Advanced Inhalation Therapies (AIT), Ltd., priority 2004, dated 2021)", "key": {"[1]": {"tested_on": "Thoroughbred racehorses with excessive mucus production", "assay": "Example 1: inhaled gaseous NO in Thoroughbred racehorses with excessive mucus, endoscopic mucus scoring", "format": "in vivo, equine", "set-up": "key to Mucus status: NG = No change in status", "details": "for Side effects: equine study, inhaled administration", "excerpt": "Six (6) Thoroughbred racehorses at a major racing jurisdiction were quarantined for two weeks, and each horse had evidence of excessive mucus production as surveyed by clinical presentation and by endoscopic exam. The horses were isolated from each other and were being medicated daily in series with several broad-spectrum antimicrobials routinely employed for respiratory infections in Equids. The results before the administration with gaseous NO had been unremarkable. […] All six horses were included in the study using gaseous NO.\nThe horses were brought individually to the veterinary hospital barn for further evaluation over the course of five days. An fiberoptic endoscope was passed to the level of the bifurcation of the trachea (carina-airway) with images recorded on videotape. A scoring system was used to indicate the presence or absence of mucus, as well as its severity, if present. This scoring system has been described by Dixon et. al., “Equine Pulmonary Disease: Ancillary Diagnostic Findings,” Equine Vet. Journal 27, 428-435, 1995, herein incorporated by reference in its entirety. A score of zero indicates the absence of mucus, while a score of 1 to 5 indicates increasing amounts of mucus observed endoscopically in the trachea. The attending Veterinarian conducting the examination did the scoring. All of the six horses scored 4 or higher before the initiation of the treatments.\nTreatment intervention of inhaled gaseous Nitric Oxide was administered to all six horses during a five-day period. Five of the horses (#2-#6) received 100 breaths of 10,000 ppm resulting in, based on pulmonary mechanics, a lung concentration of approximately 160 ppm. Horse #1 received 100 breaths of 5000 ppm resulting in 80 ppm on Day #1 and a second administration of 100 breaths of 10,000 ppm on Day #5. Horse #5 received 100 breaths of 10,000 ppm on Day #3 and a second administration of 100 breaths of 10,000 ppm on Day #4.\nAn outline of the treatment results is provided below in Table No. 1 (with scores when available). […] On a day where a measurement and a treatment occur, such as Day #4 for Horse #5, the measurement was taken before the administration of the second dosage."}, "[2]": {"tested_on": "Standardbred horses with excessive mucus accumulation", "assay": "Example 2: inhalant Nitric Oxide gas in Standardbred horses with excessive mucus accumulation, post race endoscopic mucus score", "format": "in vivo, equine", "set-up": "key to Decrease in Mucus Score: Dixon score: 0 = no mucus, 1-5 = increasing mucus; pre minus post", "excerpt": "Twenty-seven Standardbred horses were referred to this study with a history of poor performance and with evidence of excessive mucus accumulation as surveyed by endoscopic exam. This was a single site population study and the subjects served as their own control.\nHorses were examined pretreatment by videoendocscopy on a minimum of two consecutive occasions post race, one week or longer between scopings, to document the degree and persistence of mucus residence. The endoscope was passed to the level of the bifurcation of the trachea (carina) with images logged on a video recorder. The Dixon et al. scoring system was used to indicate the presence or absence of mucus, as well as its severity, if present. Zero indicates absence of mucus, and 1 to 5 indicating increasing amounts of mucus observed endoscopically in the trachea. Scoring was done by the veterinarian conducting the examination, then later by another “blinded” individual using the recorded examination.\nTreatment via a metered delivery device was provided that included a source of nitric oxide from a pressurized gas cylinder and a delivery interface with the subject's nare. The Nitric Oxide delivery device is enabled by a microprocessor-based computer (Pulmonox Medical Inc, Tofield, Alberta, Canada) wherein a proportionate flow rate of Nitric Oxide gas is delivered based on the horse's tidal volume/minute ventilation with a resulting airway/pulmonary concentration of 160-200 ppm.\nUpon enrollment in the study a candidate for the treatment intervention was administered 100 breathes of NO gas as previously described for a minimum of three days. A follow up endoscopic exam on the next available immediate post race was performed and a mucus score assigned. Post race endoscopic exams were continued for several events as a measurable outcome. Depending on the results (i.e. no change or a graded increase in mucus scores) multiple treatment cycles were continued and the results recorded via post race endoscopic exam over the next of several weeks."}, "bovine": {"tested_on": "bovine", "assay": "Preliminary experiments with bovine, mucus hydrolyzed and excreted from the nares", "format": "in vivo", "excerpt": "Thus, the Applicants believe that inhaled gaseous NO as an effective treatment to excess mucus accumulation in the airways of mammals."}, "healthy bovine": {"tested_on": "healthy bovine", "assay": "Preliminary experiments with healthy bovine, prevention of mucus accumulation", "format": "in vivo", "details": "inhaled", "excerpt": "Additionally, inhaled nitric oxide containing gas may act as a preventative measure in the accumulation of mucus in the airways. […] Such a risk may be associated with recent infection and/or contact with other infected mammals. […] The delivery of inhaled nitric oxide containing gas may be administered to these risk mammals in order to prevent mucus accumulation in the airway. Effective therapeutic amounts may also refer to an amount sufficient to break down the viscoelastic mucus and increase mucociliary transport in the mammal's airway and to increase MMC in the mammal. Therefore, treating mucus accumulation in the airways of a mammal comprises reducing mucus accumulation, preventing mucus accumulation, reducing mucociliary dyskinesia, and/or preventing mucociliary dyskinesia."}}, "note": "Where “and” joins values, the source holds several entries; their conditions need not be identical. Identical values can stand only once.", "data": [{"compound": "[N]=O", "note": "[gNO, Nitric Oxide]", "values": [{"measurement": "Mucus score (endoscopic, 0-5)", "setting": "[1]; Horse #1, Day #2, Tx 100 breaths at 5000 ppm on Day #1", "result": "Clear (0)"}, {"measurement": "Return of the previous amount of mucus (amount before administration of gNO), not scored", "setting": "[1]; Horse #1, Day #3, Tx 100 breaths at 5000 ppm on Day #1", "result": 25, "unit": "% rtn."}, {"measurement": "Mucus status", "setting": "[1]; Horse #1, Day #4, Tx 100 breaths at 5000 ppm on Day #1", "result": "NG"}, {"measurement": "Mucus status", "setting": "[1]; Horse #1, Day #5, before second Tx (10,000 ppm), Tx 5000 ppm on Day #1", "result": "NG, Tx 10k"}, {"measurement": "Mucus score (endoscopic, 0-5)", "setting": "[1]; Horse #1, Day #6, Tx 5000 ppm Day #1 and Tx 100 breaths at 10,000 ppm Day #5", "result": "Trace (1)"}, {"measurement": "Mucus score (endoscopic, 0-5)", "setting": "[1]; Horse #2, Day #2, Tx 100 breaths at 10,000 ppm on Day #1", "result": "Clear (0)"}, {"measurement": "Return of the previous amount of mucus (amount before administration of gNO), not scored", "setting": "[1]; Horse #2, Day #3, Tx 100 breaths at 10,000 ppm on Day #1", "result": 25, "unit": "% rtn."}, {"measurement": "Mucus status", "setting": "[1]; Horse #2, Day #4, Tx 100 breaths at 10,000 ppm on Day #1", "result": "NG"}, {"measurement": "Mucus status", "setting": "[1]; Horse #2, Day #5, Tx 100 breaths at 10,000 ppm on Day #1", "result": "NG"}, {"measurement": "Mucus score (endoscopic, 0-5)", "setting": "[1]; Horse #3, Day #3, Tx 100 breaths at 10,000 ppm on Day #2", "result": "Clear (0)"}, {"measurement": "Mucus status", "setting": "[1]; Horse #3, Day #4, Tx 100 breaths at 10,000 ppm on Day #2", "result": "NG"}, {"measurement": "Mucus score (endoscopic, 0-5)", "setting": "[1]; Horse #3, Day #5, Tx 100 breaths at 10,000 ppm on Day #2", "result": "Trace (2)"}, {"measurement": "Mucus score (endoscopic, 0-5)", "setting": "[1]; Horse #4, Day #4, Tx 100 breaths at 10,000 ppm on Day #3", "result": "Clear (0)"}, {"measurement": "Return of the previous amount of mucus (amount before administration of gNO), not scored", "setting": "[1]; Horse #4, Day #5, Tx 100 breaths at 10,000 ppm on Day #3", "result": 25, "unit": "% rtn."}, {"measurement": "Mucus score (endoscopic, 0-5)", "setting": "[1]; Horse #5, Day #4, before second dosage, Tx 100 breaths at 10,000 ppm on Day #3", "result": "Clear (0),"}, {"measurement": "Mucus score (endoscopic, 0-5)", "setting": "[1]; Horse #5, Day #5, Tx 100 breaths at 10,000 ppm on Day #3 and Day #4", "result": "Trace (2)"}, {"measurement": "Mucus score (endoscopic, 0-5)", "setting": "[1]; Horse #5, Day #6, Tx 100 breaths at 10,000 ppm on Day #3 and Day #4", "result": "Trace (1)"}, {"measurement": "Mucus score (endoscopic, 0-5)", "setting": "[1]; Horse #6, Day #6, Tx 100 breaths at 10,000 ppm on Day #5", "result": "Trace (2)"}, {"measurement": "Reduction in mucus from Day #1", "setting": "[1]; Horses #2 and #4 (25% of the mucus returned, not scored)", "result": 75, "unit": "%"}, {"measurement": "Side effects", "setting": "[1]", "result": "did not result in any irritation, inflammation or abnormal side effects"}, {"measurement": "Side effects", "setting": "[1]; listed as inhaled NO", "result": "no untoward side effects were observed"}, {"measurement": "Observation immediately following administration", "setting": "[1]; horses, inhaled", "result": "non-viscous liquids started to flow out of the nares of the horses"}, {"measurement": "Time until non-viscous liquids start to flow out of the nares", "setting": "[1]; six equine with excessive mucus accumulation, after inhalation", "result": "10 to 30", "unit": "min"}, {"measurement": "Reduction of mucus", "setting": "[1]; six equine, all subjects", "result": "reductions of mucus to trace levels in all subjects"}, {"measurement": "Response to additional treatment cycles", "setting": "[2]; horses with recurrence to scores of 2 or more in the weeks following the first treatment", "result": "repeatable marked reduction in mucus scores following treatment"}, {"measurement": "Post-Mucus Score (after administering gNO)", "setting": "[2]; individual horses 1-27, 100 breaths for a minimum of three days, airway concentration 160-200 ppm, post race endoscopy, Dixon scale 0-5", "result": "2 (6×) and 0 (7×) and 3 (2×) and 4 (2×) and 1 (4×) and 1.5 (2×) and 2.5 (4×)"}, {"measurement": "Decrease in Mucus Score", "setting": "[2]; individual horses 1-27, pre-score minus post-score, 100 breaths for a minimum of three days, 160-200 ppm", "result": ".5 (7×) and 1 (5×) and 2.5 (2×) and 3 (3×) and 3.5 (2×) and 2 (5×) and 1.5 and 0"}, {"measurement": "Number of horses with decrease in score by at least 0.5", "setting": "[2]; of twenty-seven, Dixon et al. scale", "result": "Twenty five"}, {"measurement": "Number of horses with score reduction of at least 1", "setting": "[2]; of twenty-seven, after a single treatment cycle", "result": "Eighteen"}, {"measurement": "Number of subjects with decrease in mucus score from 2 to 3.5", "setting": "[2]; of twenty-seven, single or multiple treatments, transient reduction", "result": "Twelve"}, {"measurement": "Improvement in mucus scores post treatment", "setting": "[2]; twenty-seven horses enrolled", "result": "all but two showed significant improvement in their mucus scores"}, {"measurement": "Time until mucus is hydrolyzed and excreted from the nares", "setting": "bovine", "result": "10 to 30", "unit": "min"}, {"measurement": "Prevention of mucus accumulation", "setting": "healthy bovine", "result": "results in the prevention of mucus accumulation"}]}]}
